Experimental findings from patent US4992455A, “Thiazolidin-4-one derivatives useful for treating diseases caused by platelet activating factor” (Sumitomo Pharmaceuticals Company, Limited, priority 1987, dated 1991) are described below.

Values after ≈ are worked out from the molar mass of the structure shown.

For assay [1], the system named is PAF-induced rabbit platelet aggregation. The experiment in a line: Inhibition of PAF-induced rabbit platelet aggregation (in vitro, platelet-rich plasma). As to conditions: Oryctolagus cuniculus, rabbit PRP, 37° C., final PAF concentration 0.005 μ1/ml [sic]. In kind it is cell-based. On the procedure:
(§1) The inhibition of PAF-induced platelet aggregation was examined by using a platelet-rich plasma (PRP) of rabbit according to the method of Mustard et al. [J.F. Mustard et al., J. Lab. Clin. Med., 64, 548 (1964)], which is an improvement of the method of Born [G.V.R. Born, J. Physiol., London, 162, 67 (1962)]. That is, 80-100 ml of blood per animal was collected from carotid arteries of male rabbits of the Japanese white breed without anesthesia into a polyethylene vessel containing 1/10 the volume of a 3.8% sodium citrate solution. A portion (about 3 ml) of the collected blood was centrifuged at a high speed (11,000 rpm) for 60 seconds, giving a platelet-poor plasma (PPP) as supernatant. The remainder of the blood was centrifuged at a low speed (1000 rpm) for 10 minutes, giving a platelet-rich plasma (PRP) as supernatant.
(§2) The degree of platelet aggregation was determined by nephelometry with an aggregometer (Hematracer, Niko Bioscience Co.) while stirring the PRP at 1000 rpm at 37° C. The platelet aggregation activity was expressed in terms of the light transmittance (%), the value of PRP being taken as 0% and the value of PPP as 100%. A portion (0.2 ml) of the PRP was placed in a glass cuvette containing a silicone-treated stirring iron rod, and 2 µl of dimethylsulfoxide was added. AFter 2 minutes, PAF dissolved in 0.25% BSA physiological saline was added to give a final PAF concentration of 0.005 μ1/ml, and the maximum aggregation was determined. To examine the inhibitory activity of test compounds on the platelet aggregation caused by PAF, 2 µl of a dimethylsulfoxide solution of each test compound was added in place of the dimethylsulfoxide. The percentage inhibition by the test compound of PAF-induced platelet aggregation was calculated according to the following equation and the value of IC50 was determined. [formula]

The subject of assay [2] is PAF-induced human platelet aggregation. The experiment in a line: Inhibition of PAF-induced human platelet aggregation (in vitro, human PRP). In kind it is cell-based. On the procedure:
as §1, §2
The inhibition of PAF-induced platelet aggregation was tested by using human PRP. The test was conducted according to the procedure of the above case of rabbit, thereby evaluating the percentages inhibition and IC50 values of test compounds at final PAF concentrations of 0.3 μM and 1 μM.

Assay [3] concerns PAF-induced blood concentration. The experiment in a line: Test in vivo for inhibition of PAF-induced blood concentration. The settings on record: guinea pigs, dose 3 mg/kg iv, PAF iv 2 min later. On the procedure:
Guinea pigs under anesthesia with urethane (6.25 mg/kg injected into the abdominal cavities) were cannulated through carotid arteries and jugular veins. The carotid artery cannulae were used for blood sampling and the jugular vein cannulae for the intravenous injection of test compound and PAF.
Compound No. 27 was suspended in 10% Nikkol® liquid to a concentration of 3 mg/ml, and 1 ml/kg of the resulting suspension was administered through the jugular vein cannulae. Two minutes later, 1 ml/kg of a 0.1 μg/m1 PAF solution was administered through the jugular vein cannulae. Then, blood was sampled at times. The blood samples were each centrifuged at 11,000 rpm for 5 minutes and the hematocrit values were measured to determine the maximum increase (blood concentration) in hematocrit value.
For a control, 0.5% methyl cellulose solution was administered in place of compound No. 27.
The percentage inhibition of the PAF-induced blood concentration by compound No. 27 was calculated according to the following equation: [formula] The found percentage inhibition was 87%.

The IC50 is the point on the concentration scale where inhibition reaches its midpoint. A higher IC50 goes with weaker potency.

Compound `CCN1C(=O)C(C)SC1c1cccnc1` (stereo not shown) [compound 30] yielded an IC50 in assay [1] of 4.2 µg/mL (≈ 18.9 µM). Turning to `CN(C)CCN1C(=O)[C@@H](CCCO[Si](C)(C)C(C)(C)C)S[C@@H]1c1cccnc1` (relative stereo) [compound 169], the concentration for half-maximal inhibition (IC50) in assay [1] came out at 0.026 µg/mL (≈ 0.0614 µM). Turning to `CCCCCCCCC[C@H]1S[C@@H](c2cccnc2)N(C)C1=O` (relative stereo) [compound 50], in assay [1], the IC50 was 4.6 µg/mL (≈ 14.4 µM). `CCCCCCCCC[C@H]1S[C@H](c2cccnc2)N(CCN(C)C)C1=O` (relative stereo) [Compound No. 27, 3-(2-dimethylaminoethyl)-5-(n-nonyl)-2-(3-pyridyl)thiazolidin-4-one]: the IC50 in assay [1] turned out to be 0.02 µg/mL (≈ 0.053 µM); in assay [2] (PAF concentration 0.3 μM) it was 0.2 µg/mL (≈ 0.53 µM); in assay [2] (PAF concentration 1 μM), 0.4 µg/mL (≈ 1.06 µM). Also, in assay [3], the “Percentage inhibition of PAF-induced blood concentration (maximum increase in hematocrit value)” value was 87%. Regarding `CCCCC[C@H]1S[C@H](c2cccnc2)N(CCN(C)C)C1=O` (relative stereo) [compound 71], the IC50 in assay [1] came out at 0.32 µg/mL (≈ 0.995 µM). `C[C@H]1S[C@H](c2cccnc2)N(CC(=O)OC(C)(C)C)C1=O` (relative stereo) [Compound No. 15, 3-t-butyloxycarbonylmethyl-5-methyl-2-(3-pyridyl)thiazolidin-4-one] returned an IC50 in assay [1] of 2.6 µg/mL (≈ 8.43 µM). Same read-out and setting: next, `CCCCCCCCCC[C@H]1S[C@H](c2cccnc2)N(CCN(C)C)C1=O` (relative stereo) [compound 79]: 0.05 µg/mL (≈ 0.128 µM); `CCCCCCC[C@H]1S[C@H](c2cccnc2)N(CCN(C)C)C1=O` (relative stereo) [compound 75]: 0.06 µg/mL (≈ 0.172 µM).

In turn, `C[C@H]1S[C@@H](c2cccnc2)N(C)C1=O` (single isomer, unassigned) [compound 178, (+)-cis-3,5-dimethyl-2-(3-pyridyl)-thiazolidin-4-one] returned an IC50 in assay [1] of 1.5 µg/mL (≈ 7.2 µM). The same measure, in the same setting: next, `CCCC1SC(c2cccnc2)N(C)C1=O` (stereo not shown) [compound 43]: 1.2 µg/mL (≈ 5.08 µM); `CN(C)CCN1C(=O)C(CC(F)(F)F)SC1c1cccnc1` (stereo not shown) [compound 171]: 4.2 µg/mL (≈ 12.6 µM).

Take `CN1C(=O)C(C)(C)SC1c1cccnc1` (stereo not shown) [compound 8, 5,5,3-trimethyl-2-(3-pyridyl)-thiazolidin-4-one]: the IC50 in assay [1] was 3.6 µg/mL (≈ 16.2 µM). Still for that read-out and setting: the result for `CCCCCCCC[C@H]1S[C@H](c2cccnc2)N(CCN(C)C)C1=O` (relative stereo) [compound 77] reads 0.034 µg/mL (≈ 0.0935 µM); that for `CCCCCC[C@H]1S[C@H](c2cccnc2)N(CCN(C)C)C1=O` (relative stereo) [compound 73], 0.07 µg/mL (≈ 0.209 µM).

Consider `CC(C)COCCOCC[C@H]1S[C@H](c2cccnc2)N(CCN(C)C)C1=O` (relative stereo) [compound 150], for which the IC50 in assay [1] was determined as 0.16 µg/mL (≈ 0.404 µM). The same measure, in the same setting: the result for `CN(C)CCN1C(=O)[C@@H](CCOCc2ccccc2)S[C@@H]1c1cccnc1` (relative stereo) [compound 131] reads 0.14 µg/mL (≈ 0.363 µM); that for `CN(C)CCN1C(=O)C(CCOCCO[Si](C)(C)C(C)(C)C)SC1c1cccnc1` (stereo not shown) [compound 165], 0.3 µg/mL (≈ 0.661 µM); that for `COc1ccc(CCN2C(=O)[C@@H](C)S[C@@H]2c2cccnc2)cc1OC` (relative stereo) [compound 37], 0.7 µg/mL (≈ 1.95 µM). Consider `CCCCOCCOCC[C@H]1S[C@H](c2cccnc2)N(CCN(C)C)C1=O` (relative stereo) [compound 135], for which the concentration for half-maximal inhibition (IC50) in assay [1] was determined as 0.15 µg/mL (≈ 0.379 µM).

In turn, `CCCCCCCCCCC1SC(c2cccnc2)N(C)C1=O` (stereo not shown) [compound 51] showed an IC50 in assay [1] of 1.4 µg/mL (≈ 4.18 µM). On the same count and under the same terms, next, `CCCCCCCC[C@H]1S[C@@H](c2cccnc2)N(CCN(C)C)C1=O` (relative stereo) [compound 78]: 0.14 µg/mL (≈ 0.385 µM); `CN(C)CCN1C(=O)[C@@H](CCCO[Si](C)(C)C(C)(C)C)S[C@H]1c1cccnc1` (relative stereo) [compound 170]: 0.052 µg/mL (≈ 0.123 µM); `CCCCCC1SC(c2cccnc2)N(C)C1=O` (stereo not shown) [compound 46]: 1.9 µg/mL (≈ 7.19 µM).

Turning to `CCC1SC(c2cccnc2)N(C)C1=O` (stereo not shown) [compound 42], in assay [1], half-maximal inhibition (IC50) was put at 2.5 µg/mL (≈ 11.2 µM). Still for that read-out and setting: the result for `CCOC(=O)CN1C(=O)[C@@H](C)S[C@H]1c1cccnc1` (relative stereo) [Compound No. 9, 3-ethoxycarbonylmethyl-5-methyl-2(3-pyridyl)thiazolidin-4-one] reads 1.6 µg/mL (≈ 5.71 µM); that for `CCCCCCCCC[C@H]1S[C@H](c2cccnc2)N(C)C1=O` (relative stereo) [compound 49], 2.4 µg/mL (≈ 7.49 µM); that for `C[C@H]1S[C@H](c2cccnc2)N(CCN(C)C)C1=O` (relative stereo) [compound 127], 1.7 µg/mL (≈ 6.41 µM). Still for that read-out and setting: the result for `CCCCCCC1SC(c2cccnc2)N(C)C1=O` (stereo not shown) [compound 47] reads 1.4 µg/mL (≈ 5.03 µM). Same read-out and setting: next, `CCCCC1SC(c2cccnc2)N(C)C1=O` (stereo not shown) [compound 7, 5-butyl-3-methyl-2-(3-pyridyl)-thiazolidin-4-one]: 2 µg/mL (≈ 7.99 µM); `CCCCCCC[C@H]1S[C@@H](c2cccnc2)N(CCN(C)C)C1=O` (relative stereo) [compound 76]: 0.2 µg/mL (≈ 0.572 µM). As to `CN(C)CCN1C(=O)C(C)(C)SC1c1cccnc1` (stereo not shown) [compound 25, 5,5-dimethyl-3-(2-dimethylaminoethyl)2-(3-pyridyl)thiazolidin-4-one], the IC50 in assay [1] worked out at 10 µg/mL (≈ 35.8 µM).

`C[C@H]1S[C@@H](c2cccnc2)N(C)C1=O` (relative stereo) [Compound No. 2, 3,5-Dimethyl-2-(3-pyridyl)thiazolidin-4-one]: the IC50 in assay [1] was found to be 4 µg/mL (≈ 19.2 µM); in assay [2] (PAF concentration 0.3 μM), 5.5 µg/mL (≈ 26.4 µM). Besides, in assay [3], the “Percentage inhibition of PAF-induced blood concentration (maximum increase in hematocrit value)” value is on record as 53%. As for `CCCCCCCCCCC[C@H]1S[C@H](c2cccnc2)N(CCN(C)C)C1=O` (relative stereo) [compound 81], the IC50 in assay [1] stood at 0.1 µg/mL (≈ 0.247 µM).

As for `CN(C)CCN1C(=O)C(CCOCc2ccccc2)(CCOCc2ccccc2)SC1c1cccnc1` (stereo not shown) [compound 130], the IC50 in assay [1] was determined as 4.2 µg/mL (≈ 8.08 µM). Still for that read-out and setting: the result for `C[C@@H]1S[C@@H](c2cccnc2)N(C)C1=O` (single isomer, unassigned) [compound 181, (+)-trans-3,5-dimethyl-2-(3-pyridyl)-thiazolidin-4-one] reads 5 µg/mL (≈ 24 µM); that for `CCCCCCCCCCCC[C@H]1S[C@H](c2cccnc2)N(CCN(C)C)C1=O` (relative stereo) [compound 83], 0.27 µg/mL (≈ 0.643 µM); that for `CC(C)OCCC1SC(c2cccnc2)N(CCN(C)C)C1=O` (stereo not shown) [compound 154], 2.4 µg/mL (≈ 7.11 µM). In assay [2] (PAF concentration 0.3 μM), `C#CCN1C(=O)[C@@H](C)S[C@@H]1c1cccnc1` (relative stereo) [compound 33] yielded an IC50 of 5.5 µg/mL (≈ 23.7 µM). As to `CCCCCCCCCCC[C@H]1S[C@@H](c2cccnc2)N(CCN(C)C)C1=O` (relative stereo) [compound 82], half-maximal inhibition in assay [1] (IC50) required 0.6 µg/mL (≈ 1.48 µM). Still for that read-out and setting: the result for `CCC[C@H]1S[C@H](c2cccnc2)N(CCN(C)C)C1=O` (relative stereo) [compound 67] reads 0.45 µg/mL (≈ 1.53 µM); that for `CCCC[C@H]1S[C@H](c2cccnc2)N(CCN(C)C)C1=O` (relative stereo) [compound 69], 0.24 µg/mL (≈ 0.781 µM). In turn, `CCC1SC(c2cccnc2)N(CCN(C)C)C1=O` (stereo not shown) [compound 24, 5-ethyl-3-(2-dimethylaminoethyl)-2-(3-pyridyl)thiazolidin-4-one] yielded an IC50 in assay [1] of 2 µg/mL (≈ 7.16 µM). Still for that read-out and setting: the result for `CCCCOCC[C@H]1S[C@H](c2cccnc2)N(CCN(C)C)C1=O` (relative stereo) [compound 133] reads 0.18 µg/mL (≈ 0.512 µM); that for `CCCCCCCCCC[C@H]1S[C@@H](c2cccnc2)N(CCN(C)C)C1=O` (relative stereo) [compound 80], 0.35 µg/mL (≈ 0.894 µM). As to `CC(=O)SCCN1C(=O)[C@@H](C)S[C@H]1c1cccnc1` (relative stereo) [Compound No. 18, 3-(2-Acetylthioethyl)-5-methyl-2(3-pyridyl)thiazolidin-4-one], the IC50 in assay [1] turned out to be 3 µg/mL (≈ 10.1 µM). Turning to `CCOCCCC1SC(c2cccnc2)N(CCN(C)C)C1=O` (stereo not shown) [compound 137], the IC50 in assay [1] amounted to 0.19 µg/mL (≈ 0.563 µM). As for `CCCCCCCCC[C@H]1S[C@@H](c2cccnc2)N(CCCN(C)C)C1=O` (relative stereo) [compound 108], the IC50 is 0.7 µg/mL (≈ 1.79 µM) in assay [1], 1.8 µg/mL (≈ 4.6 µM) in assay [2] (PAF concentration 0.3 μM) and 6 µg/mL (≈ 15.3 µM) in assay [2] (PAF concentration 1 μM). Regarding `C[C@H]1S[C@@H](c2cccnc2)N(CCN(C)C)C1=O` (relative stereo) [compound 128], it took 4.2 µg/mL (≈ 15.8 µM) to reach half-maximal inhibition in assay [1] (IC50).
